We go through seven compounds from PubChem BioAssay (NCI).

Holding throughout (assay): DTP human tumour cell line panel, 48 h
Test [1] has as its system DU-145 prostate.
The test system of test [2] is 786-0 renal.
The test system of test [3] is SR leukemia.
Test [4] has as its system U251 CNS.
Test [5] relates to SF-295 CNS.
Test [6] relates to MDA-MB-435.
The subject of test [7] is HT29 colon.
The test system of test [8] is HCC-2998 colon.
Test [9] has as its system OVCAR-8 ovarian.
The test system of test [10] is SK-MEL-2 melanoma.

Several values for one entry are separate records, joined by “and”; a condition that tells them apart may be missing. Equal entries are not always repeated.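 Cultured in 96-well plates, cells were exposed to test compound for 48 hours across five concentrations. The concentration for 50% growth inhibition is given as GI50. TGI: total growth inhibition.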

Broadly, the GI50 is the concentration giving 50% growth inhibition. The term TGI denotes the concentration at which net growth stops. With `CC/C(=C(/c1ccc(O)cc1)c1ccc(OCCN2CCCCC2)cc1)c1ccc(OC)cc1`, the GI50 in test [1] was 4.52 µM; in [2], 1.28 µM; in [3], 0.215 µM; in [4] it was 1.85 µM; in test [5] it was 1.79 µM; in test [6], 1.58 µM. The GI50 in test [7] was 1210 nM; in test [8] it was 2.9 µM; in [9], 2.45 µM; in test [10], 2040 nM. Further, the total growth inhibition concentration (TGI) in test [1] is 18.1 µM; in test [2], 2.74 µM; in test [3], 0.649 µM; in test [4], 4.22 µM; in test [5], 3.62 µM; in [6], 3.1 µM. In addition, the TGI was found to be 3.67 µM in [7], 9.13 µM in test [8], 6.02 µM in [9] and 4.83 µM in test [10].

In the case of `C[C@H]1[C@H]2[C@H]3CC[C@@H]4[C@@]5(C)C/C(=C/c6cccnc6)C(=O)C(C)(C)[C@@H]5CC[C@@]4(C)[C@]3(C)CC[C@]23CO[C@]1(C)[C@@H](C(=O)/C=C\c1cccnc1)C3`, the GI50 in test [1] is 0.923 µM; in test [2] it was 0.905 µM; in test [3], 0.371 µM; in test [4] it was 0.964 µM; in test [5] it was 1.38 µM; in test [6], 1.17 µM. In addition, the GI50 in test [7] was 1160 nM; in test [8] it was 0.868 µM; in test [9] it was 1.59 µM; in test [10], 1210 nM. Further, the concentration for total growth inhibition (TGI) in test [1] came out at 1.71 µM; in [2], 1.95 µM; in test [4], 2.07 µM; in test [5] it was 6.21 µM; in test [6], 2.93 µM; in test [7] it was 3.73 µM. Also, the results for the TGI in test [8], in test [9] and in [10] were 1.67 µM, > 50 µM and 2.83 µM, respectively.

With `O=c1c2c3c(sc2nc(N/N=C/c2ccc(Br)cc2)n1Cc1ccccc1)CCCC3`, the GI50 was 90.9 µM in [1]; 3.07 µM in [2]; 4.98 µM in [3]; 7.83 µM in test [4]; 5.75 µM in test [5]; 44.1 µM in [6]. Moreover, the GI50 in test [7] is > 100000 nM; in test [8], > 100 µM; in test [9], 47 µM; in [10], 6080 nM. Moreover, the TGI in [1], in test [2], in test [3], in test [4], in [5] and in test [6] was > 100 µM each time. Moreover, the TGI in [7], in [8], in test [9] and in [10] was > 100 µM in each case.

On to `CC(=O)Oc1cc2c(OC(C)=O)c(-c3c(C)cc4c(C(C)C)c(OC(C)=O)c(OC(C)=O)cc4c3OC(C)=O)c(C)cc2c(C(C)C)c1OC(C)=O`, for which the GI50 in test [1] is 5.3 µM and 5.17 µM and 9.94 µM; in [2], 7.26 µM and 6.91 µM and 11.4 µM; in test [3] it was 28.3 µM and 6.93 µM; in [4] it was 4.84 µM and 4.85 µM and 9.43 µM; in [5], 8.78 µM and 5.99 µM and 10.7 µM; in test [6] it was 8.13 µM and 6.8 µM and 10.1 µM. Besides, the GI50 was 4.23 µM and 5.12 µM and 18.4 µM in test [8]; 6.44 µM and 5.89 µM and 11.8 µM in test [9]; 7830 nM and 10800 nM in test [10]. The total growth inhibition concentration (TGI) in test [1] is 11.1 µM and 10.2 µM and 23.6 µM; in test [2], 20.8 µM and 16.5 µM and 35.4 µM; in test [3] it was > 100 µM and 21.4 µM; in test [4], 9.38 µM and 24.7 µM and 35.7 µM; in test [5], 26.7 µM and 12.5 µM and 30.6 µM; in test [6], 26.8 µM and 14.1 µM and 22.7 µM. The TGI in test [7] is 40.2 µM and > 74.8 µM and 62.7 µM; in test [8], 8.3 µM and 9.51 µM and 34.3 µM; in test [9] it was 19.1 µM and 17.6 µM and > 57.6 µM; in [10] it was 31.8 µM.

Regarding `Cc1ncsc1-c1ccc(CNC(=O)[C@@H]2C[C@@H](O)CN2C(=O)[C@@H](NC(=O)C2(C#N)CC2)C(C)(C)C)cc1`, the GI50 is > 100 µM in test [1]; > 100 µM in test [2]; 55.4 µM in [3]; > 100 µM in test [4]; > 100 µM in test [5]; > 100 µM in test [6]. The GI50 in test [7] was > 100000 nM; in test [8], > 100 µM; in test [9] it was > 100 µM; in test [10], > 100000 nM. Besides, the TGI in [1], in test [2], in [3], in [4], in [5] and in test [6] was > 100 µM in each case. The total growth inhibition concentration (TGI) in [7], in test [8], in test [9] and in test [10] was > 100 µM each time.

On to `COc1ccc(-c2c(-c3cc(OC)c(OC)c(OC)c3)noc2N)cc1`, for which the GI50 in [1] is 0.0187 µM; in test [2] it was < 0.017 µM; in [3], < 0.01 µM; in [4], < 0.0165 µM; in test [5], < 0.01 µM; in [6], < 0.01 µM. For the same compound, the GI50 in test [7] was < 14.4 nM; in test [8] it was 0.0197 µM; in test [9], 0.0173 µM; in test [10] it was 18.8 nM. Besides, the TGI in [1] was 1.32 µM; in [3], 29.1 µM; in test [4], 12.6 µM; in test [5] it was > 100 µM; in [7], 0.796 µM; in test [8], 25.1 µM. Further, the TGI was 15.8 µM in test [9] and 81.4 µM in test [10].

With `COc1cnc2c(c1)C(=O)c1c-2n(CCCNC(C)C)c(=O)c2cc(F)ccc12`, the 50% growth inhibitory concentration (GI50) in [1] is 0.21 µM; in test [2] it was 0.116 µM; in [3], 0.0758 µM; in test [4], 0.0788 µM; in test [5] it was 0.0943 µM; in [6], 0.309 µM. In addition, the GI50 was 73.1 nM in test [7], 0.397 µM in [8], 0.141 µM in test [9] and 510 nM in [10]. Moreover, the TGI was 1.04 µM in test [1]; 0.482 µM in test [2]; 0.839 µM in [3]; 0.397 µM in test [4]; 0.549 µM in [5]; 1.48 µM in test [6]. Moreover, the concentration for total growth inhibition (TGI) in test [7] was 0.33 µM; in test [8], 1.75 µM; in test [9], 1.28 µM; in test [10] it was 1.92 µM.
